Converted amounts (≈) assume the structure as drawn.
Key:
[1] = biological target: T1, Human collagenase (MMP-1) (Homo sapiens, UniProt P03956); assay: Biochemical assay (Protocol A), Ki at steady state, MMP-1; conditions: preincubation, 37° C., pH=7.4, read-out: Ki at steady state (Ki*) for inhibition of MMP-1
T1 sequence (P03956 101-269): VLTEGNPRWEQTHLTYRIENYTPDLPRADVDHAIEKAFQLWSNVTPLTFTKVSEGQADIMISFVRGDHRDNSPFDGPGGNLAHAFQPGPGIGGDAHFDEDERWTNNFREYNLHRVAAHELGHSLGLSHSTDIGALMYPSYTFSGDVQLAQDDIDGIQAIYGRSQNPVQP
Method: (§1) Human gelatinase-A (MMP-2) was obtained as pro-enzyme (72 kDa) and was activated with 1 mM 4-aminophenylmercuric acetate for 30 min at 37° C. immediately prior to use. Human stromelysin-1-255 (MMP-3) was obtained as a recombinant pro-enzyme isolated from E. coli and activated by heat (1 h, 55° C.).
(§2) The substrate was the commercial quenched-fluorescence peptide Mca-Pro-Leu-Gly-Leu-Dpa-Ala-Arg-NH2, that is (7-methoxycoumarin4-yl)Acetyl-Pro-Leu-Glv-Leu-(3-[2,4-dinitrophenyl]-L-2,3-diamino-propionyl)-Ala-Arg-NH2 (C. G. Knight et al., FEBS Lett.296:263, 1992). The enzymes cleave at the Gly-Leu bond, removing the internally quenching Dpa group. Release of the highly fluorescent peptide Mca-Pro-Leu was followed fluorimetrically at 37° C. using a Perkin Elmer LS-50 Fluorescence Spectrophotometer fitted with a thermostatted four position stirring cell changer. The excitation wavelength was set at 326 nm (bandwidth 5 nm) and the emission at 392 nm (bandwidth 20 nm). Km values of this substrate for the three MMP's is 70 μM or more (Knight et al., reference above). Substrate concentration was 2 μM in the tests, so that we could approximate to unit the term (1+[substrate]/KM) in calculations. The substrate was stable for over 60 minutes in the assay conditions, giving no appreciable increment of fluorescence. Full response was adjusted against 200 nM Mca-Pro-Leu-OH (the released fluorescent peptide) and the instrument was calibrated in the range 0-100 nM Mca-Pro-Leu-OH, corresponding to 0-5% extent of hydrolysis of the 2 μM substrate. The aqueous assay buffer was 50 mM Tris/HCl pH=7.4 containing 0.15 M NaCl, 10 mM CaCl2, 0.01 mM ZnCl2 and 0.05% Brij 35. The concentration of the activated enzyme was determined by titration against representative inhibitors described in the literature and synthesized in house: Roche Ro31-9790 (N. G. Knebel et al., J. Chromatogr. B 673:213, 1995) for MMP-1, and Celltech CT-1418 (compound 1 in S. K. Chander, J. Pharm. Sci. 84:404, 1995) for MMP-2 and MMP-3. Enzyme concentrations in the tests were set at 1.0 nM for MMP-1, 0.04 nM for MMP-2, and 3.0 nM for M-3. Under our assay conditions, we measured keat/KM values of 26900, 669000 and 9740 1/(M×s) for MMP-1, MMP-2 and MMP-3, respectively. All the three enzymes were found stable for over three hours in the assay conditions.
(§3) The inhibition constant for compounds of the present invention was measured at steady state (Ki*; see J. F. Morrison and C. T. Walsh, Adv. Enzymol. Relat. Areas Mol. Biol. 61:201, 1988), upon preincubation experiment, by measuring V0, the initial rate in the absence of inhibitor, and Vs, the steady-state velocity, at different concentrations of inhibitors in the region of their enzyme-inhibitor dissociation constants.
(§4) On a routine basis, 1.94 mL of assay buffer was pre-heated at 37° C. in a vial, 0.02 mL of inhibitor in DMSO (or DMSO only), and 0.02 ml of 100 nM MMP-1 or 4 nM MMP-2 or 300 nM MMP-3 were added, mixed, and the vial was held at 37° C. for 5-180 minutes. Then 0.02 ml of 0.2 mM substrate was added, mixed and transferred into a pre-heated cell. The sample was allowed to equilibrate in the cuvette for 3-5 min at 37° C. against small changes in temperature and changes in the enzyme-inhibitor equilibria related to addition of substrate. After that, the linear increase of fluorescence was monitored over 3-5 min, and the slope (Vo or Vs) was obtained. Inhibitor concentrations were varied to collect data over Vs/Vo ratio ranging from 0.05 to 0.95. The values of Ki* were calculated by nonlinear weighted regression to the tight-binding equation according to Morrison and Walsh above:
(§5) Vs/Vo=[1/(2×Et)]×SQR[(Ki*+It−Et)^2+4×Ki*×Et]−(Ki*+It−Et)
(§6) wherein Et is the total enzyme concentration, and It is the total inhibitor concentration. The following Table I lists Ki* obtained for some representative examples: […]

[2] = biological target: T2, Human gelatinase-A (MMP-2) (Homo sapiens, UniProt P08253); assay: Biochemical assay (Protocol A), Ki at steady state, MMP-2; conditions: preincubation, 37° C., pH=7.4, read-out: Ki at steady state (Ki*) for inhibition of MMP-2
T2 sequence (P08253 110-660): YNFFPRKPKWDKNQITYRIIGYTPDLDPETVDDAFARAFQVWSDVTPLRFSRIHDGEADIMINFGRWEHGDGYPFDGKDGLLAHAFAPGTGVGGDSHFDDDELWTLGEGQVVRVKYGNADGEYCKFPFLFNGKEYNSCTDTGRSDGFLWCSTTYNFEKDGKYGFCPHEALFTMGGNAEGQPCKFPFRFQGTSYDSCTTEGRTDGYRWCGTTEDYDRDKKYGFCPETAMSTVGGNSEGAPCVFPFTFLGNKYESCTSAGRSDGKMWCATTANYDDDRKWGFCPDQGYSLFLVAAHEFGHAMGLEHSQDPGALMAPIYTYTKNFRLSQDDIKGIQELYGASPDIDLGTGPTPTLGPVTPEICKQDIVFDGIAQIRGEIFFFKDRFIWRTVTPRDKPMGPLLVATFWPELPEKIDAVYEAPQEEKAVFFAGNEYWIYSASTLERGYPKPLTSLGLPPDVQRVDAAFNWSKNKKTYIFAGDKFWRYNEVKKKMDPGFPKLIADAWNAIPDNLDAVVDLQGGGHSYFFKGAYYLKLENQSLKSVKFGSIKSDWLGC
Method: as §1, §2, §3, §4, §5, §6

[3] = biological target: T3, Human stromelysin-1-255 (MMP-3) (Homo sapiens, UniProt P08254); assay: Biochemical assay (Protocol A), Ki at steady state, MMP-3; conditions: preincubation, 37° C., pH=7.4, read-out: Ki at steady state (Ki*) for inhibition of MMP-3
T3 construct: host or cells: E. coli
Method: as §1, §2, §3, §4, §5, §6

Aqueous solubility = format: physicochemical; conditions: 25° C.; for solubility: water
[4] = PK parameters in rats, iv route; conditions: rat, in vivo, 10-15 mg/kg
Method: As a further example, Table 3 reports clearance and AUC values measured after intravenous administration to rats of a […] of some representative compounds of the present invention.

[5] = PK parameters, oral route, rat; format: in vivo; conditions: 10-15 mg/kg; for bioavailability: read-out: % F (oral bioavailability)
Method: (§7) As an additional example, Table 4 reports the maximum plasma concentration (Cmax) and oral bioavailability (% F; calculated from dose-normalised ratio of oral to i.v. mean AUC values) after oral administration to rats or cynomolgus monkeys of a […] of some representative compounds of the present invention.

[6] = PK parameters, oral route, cynomolgus monkey; format: in vivo; conditions: 10-15 mg/kg
Method: as §7

[7] = plasma, dose-normalised ratio of oral to i.v. mean AUC
[8] = dose-normalised ratio of oral to i.v. mean AUC

T3 sequence (P08254 100-255 limits assumed): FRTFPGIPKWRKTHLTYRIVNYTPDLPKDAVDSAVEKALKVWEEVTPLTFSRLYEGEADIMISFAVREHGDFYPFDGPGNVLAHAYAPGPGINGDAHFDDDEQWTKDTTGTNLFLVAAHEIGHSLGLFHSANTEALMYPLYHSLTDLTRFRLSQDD

SMILES | Ki [1] [nM] | Ki [2] [nM] | Ki [3] [nM] | other results
CC(C)C[C@@H](C(=O)N1CCCCC1)[C@H](NC(=O)OC(C)(C)C)C(=O)NO [Example 2, (3S-tert-Butoxycarbonylamino-4-hydroxyamino-2R-isobutyl)succinyl-piperidinamide] | 1100 | 2800 | 13000 | solubility (Aqueous solubility; Conditions A): > 4500 µg/mL
COc1ccc(S(=O)(=O)N[C@H](C(=O)NO)[C@@H](CC(C)C)C(=O)N2CCCCC2)cc1 [Example 7, (4-Hydroxyamino-3S-(4-methoxyphenylsulfonyl)amino-2R-isobutyl)succinyl-piperidin-amide] | 70 | 250 | 720 | solubility (Aqueous solubility; Conditions A): 4000 µg/mL (≈ 9.06 mM)
CC(C)C[C@@H](C(=O)N1CCOCC1)[C@H](N)C(=O)NO [Example 10, (3S-Amino-4-hydroxyamino-2R-isobutyl)succinyl-morpholinamide] | 180 | 340 | 2200 | AUC [4]: 11100 ng·h/mL; clearance [4]: 24 mL/min/kg; bioavailability [5, 7]: 28%; Cmax ([5]; plasma, read-out: Cmax): 2120 ng/mL
Cc1ccc(S(=O)(=O)N[C@H](C(=O)NO)[C@@H](CC(C)C)C(=O)N2CCOCC2)cc1 [Example 12, (4-Hydroxyamino-2R-isobutyl-3S-(4-toluenesulfonyl)amino)succinyl-morpholinamide] | 41 | 190 | 380 | AUC [4]: 6580 ng·h/mL; clearance [4]: 39 mL/min/kg; bioavailability [5, 7]: 21%; Cmax ([5]; plasma, read-out: Cmax): 2440 ng/mL
COc1ccc(CCC[C@@H](C(=O)N2CCOCC2)[C@H](NC(=O)OC(C)(C)C)C(=O)O)cc1 [Example 13, (3S-tert-Butoxycarbonylamino-4-hydroxy-2R-(4-methoxy)phenpropyl)succinyl-morpholinamide] |  |  |  | Aqueous solubility (Aqueous solubility; Conditions A): 6710 µg/mL
COc1ccc(CCC[C@@H](C(=O)N2CCOCC2)[C@H](N)C(=O)O)cc1 [Example 14, (3S-Amino-4-hydroxy-2R-(4-methoxy)phenpropyl)succinyl-morpholinamide] |  |  |  | Aqueous solubility (Aqueous solubility; Conditions B): >14000 µg/mL
COc1ccc(CCC[C@@H](C(=O)N2CCOCC2)[C@H](N)C(=O)NO)cc1 [Example 16, (3S-Amino-4-hydroxyamino-2R-(4-methoxy)phenpropyl)succinyl-morpholinamide] | 6400 | 94 | 2400 | solubility (Aqueous solubility; Conditions B): > 9600 µg/mL
COc1ccc(CCC[C@@H](C(=O)N2CCOCC2)[C@@H](C(=O)NO)N(C)C)cc1 [Example 19, (3S-N,N-Dimethylamino-4-hydroxyamino-2R-(4-methoxy)phenpropyl)succinyl-morpholinamide] | 4500 | 230 | 1100 | solubility (Aqueous solubility; Conditions A): 7500 µg/mL (≈ 19.1 mM); AUC [4]: 9380 ng·h/mL; clearance [4]: 27 mL/min/kg
CS(=O)(=O)N[C@H](C(=O)NO)[C@@H](CC1CCCC1)C(=O)N1CCN(Cc2ccc3c(c2)OCO3)CC1 [Example 47, (2R-Cyclopentylmethyl-4-hydroxyamino-3S-(methylsulfonyl)amino)succinyl-(4-piperonyl)piperazinamide] | 4.6 | 28 | 140 | 

Second part, led by results:

Ki [1] [nM] | Ki [2] [nM] | Ki [3] [nM] | SMILES | other results
88 | 290 | 2500 | CC(C)C[C@@H](C(=O)N1CCCCC1)[C@H](N)C(=O)NO [Example 3, (3S-Amino-4-hydroxyamino-2R-isobutyl)succinyl-piperidinamide] | solubility (Aqueous solubility; Conditions A): > 9500 µg/mL
61 | 310 | 940 | CC(C)C[C@@H](C(=O)N1CCCCC1)[C@@H](C(=O)NO)N(C)C [Example 5, (3SN,N-Dimethylamino-4-hydroxyamino-2R-isobutyl)succinyl-piperidinamide] | solubility (Aqueous solubility; Conditions B): > 6000 µg/mL
850 | 79 | 860 | COc1ccc(CCC[C@@H](C(=O)N2CCCCC2)[C@H](N)C(=O)NO)cc1 [Example 18, (3S-Amino-4-hydroxyamino-2R-(4-methoxy)phenpropyl)succinyl-piperidinamide] | solubility (Aqueous solubility; Conditions B): > 9600 µg/mL
15 | 67 | 730 | N[C@H](C(=O)NO)[C@@H](CC1CCCC1)C(=O)N1CCCCC1 [Example 22, (3S-Amino-2R-cyclopentylmethyl-4-hydroxyamino)succinyl-piperidinamide] | solubility (Aqueous solubility; Conditions B): > 8200 µg/mL; bioavailability [5, 7]: 62%; Cmax ([5]; plasma, read-out: Cmax): 5490 ng/mL
26 | 58 | 490 | C[C@@H](NC(=O)[C@H](CC1CCCC1)[C@H](N)C(=O)NO)C1CCCCC1 [Example 50, (3S-Amino-2R-cyclopentylmethyl-4-hydroxyamino)succinyl-(1R-cyclohexylethyl)amide] | Cmax [5]: 3146 ng/mL; % F (oral bioavailability) [5, 8]: 50%; Cmax [6]: 49516 ng/mL; % F (oral bioavailability) [6, 8]: 70%
